Measured values taken from US20080039434A1, “Treatment of Interstitial Cystitis with Vitamin D Compounds” (BioXell S. p.A., priority 2004, published 2008).

What was measured:
[1] = system: allergen-induced chronic bladder inflammation; assay: Efficacy ranking in the allergen-induced chronic bladder inflammation model of interstitial cystitis; type: in vivo, mouse; conditions: each compound at its tested dosage
Protocol: (§1) Experiments in Example 7 were performed according to the general procedures described previously in Example 6. Mice were challenged with saline (untreated) or ovalbumin (treatment with vehicle or one of Compounds C-I at a dosage indicated in Table 6 in ug/kg).
Summarizing all the results presented above in Example 7, we can conclude that these compounds can be ranked with respect to their efficacy in reducing several parameters measuring inflammation of the bladder in the allergen-induced chronic bladder inflammation model of interstitial cystitis.

MMCP1 protein = assay: Serum level of mast-cell derived chymase MMCP1 protein, allergic IC in mice; type: in vivo, mouse
Protocol: (§2) Mice (BALB/c, females 8 weeks old, weight 18-20 g, Charles River, Calco ITA) were sensitized by injecting 10 ug/mouse of chicken ovalbumin from Sigma (OVA, grade V) in the presence of 4 mg of alum (SERVA, Germany) by intraperitoneal injection, once a week for 4 weeks. This induces a sustained level of IgE detectable in serum.
(§3) One or two weeks after the last immunization boost, sensitized mice were anesthetized (1.5% Isoflurane) and then trans-urethrally catheterized (24 gauge, ¾ in.; Angiocath, Becton-Dickson). Slight digital pressure was applied the lower abdomen to drain the urine.
(§4) The urinary bladders were instilled with either 150 ul of either saline or OVA alone, (1 mg/150 ul) infused at a slow rate to avoid trauma and vesico-ureteral reflux and repeated twice within a 30-min interval with the syringe kept in place on the catheter for at least 30 min. Intravesical challenge was repeated 7-10 days after the first one with the same procedure.
Treatment Group: 10 mice were treated with oral vitamin D3 analogue (1-alpha-fluoro-25-hydroxy-16,23Ediene-26,27-bishomo-20-epi-cholecalciferol) Compound “B” for 14 days (daily dose of either 30 or 75 ug/kg).
(§5) An ethanol stock solution of Compound B (1 mg/ml) was dissolved in Miglyol vehicle at the appropriate concentration. Control animals received the vehicle containing the same amount of ethanol. Drug (or vehicle) treatment was carried out by daily gavage after weighing the animal. Drug solution was prepared calculating a final volume of 100 ul/10 grams body weight, and treatment was started on the day of the first intravesical ovalbumin challenge, maintained daily, but discontinued over the weekends, for 12 days total treatment. FIG. 7 illustrates the timeline of the experiment.
as §1

[2] = Calcemia assessment in allergic IC mice (colorimetric serum calcium assay); type: in vivo, mouse; set-up: serum calcium levels: dose or concentration left out as unconfirmed
Protocol: Serum calcemia was evaluated by a commercially available colorimetric assay (Calcium Dry-Fast, Sentinel CH. Italy). Briefly, 10 ul serum were added to 100 ul reaction solution prepared according to the manufacturer's procedure in a 96-wells plate. After 5 min incubation at RT samples were read at 570 nm with a spectrophotometer and the calcium levels were calculated in triplicate by using a standard reference as directed.

[3] = system: ovalbumin-challenged mouse bladder; assay: Blind histological analysis of bladder sections, allergic IC in mice; type: in vivo
Protocol: as §2, §3, §4, §5
Bladders were explanted from the animals, longitudinally divided in two moieties, one half was either immediately fixed in formalin (10% buffered) for at least 3 hrs or snap frozen in liquid nitrogen upon inclusion in OCT freezing medium (Tissue-Tek Sakura). For histological analysis, fixed bladders were further processed and finally paraffin embedded. Five um sections were serially cut then stained with GIEMSA (BDH, 20% solution, 3 hrs RT) and then de-stained in 0.1% acetic acid for 10 sec. After a clarification step in Xylene, slides were permanently mounted with Eukitt medium and analyzed by a pathologist in a blinded fashion in order to evaluate for inflammatory cell infiltrate, mast cell numbers, and the presence of interstitial edema. A semi-quantitative histological score was used, assigning: 1 for mild infiltrate, no edema; 2 for intermediate infiltration, little edema; and 3 for severe infiltration and edema.
as §1

total IgE = assay: Serum total IgE ELISA, allergic IC in mice; type: in vivo, mouse; conditions: 75 ug/kg oral vs vehicle; ovalbumin-sensitized BALB/c mice
Protocol: as §2, §3
as §4, with “procedure. […]” for “procedure.”
Serum total IgE levels were measured by using a commercially available kit (BD Opteia, Mouse IgE ELISA Set Cat. No. 555248) and following manufacturer's instructions. […] After reaction stopping (H2SO4 1M, 50 ul/well) absorbance at 450 nm was recorded within 30 minutes.

ovalbumin specific IgE = assay: Ova-specific IgE ELISA, allergic IC in mice; type: in vivo, mouse; conditions: 75 ug/kg oral vs vehicle; ovalbumin-sensitized BALB/c mice
Protocol: as §2, §3, §4
Treatment Group: 10 mice were treated with oral vitamin D3 analogue (1-alpha-fluoro-25-hydroxy-16,23Ediene-26,27-bishomo-20-epi-cholecalciferol) Compound “B” for 14 days (daily dose of either 30 or 75 ug/kg). […]
Ova-specific IgE were measured according to the following procedure. […] Finally, 450 nm absorbance was recorded after the reaction was stopped.

[4] = 75 ug/kg oral vs vehicle, p<0.05
[5] = 75 ug/kg oral vs vehicle, p<0.01

serum calcium levels relative to the vehicle treated control group ([2]; oral ug/kg: C 3, A 0.1, E 0.3, F 30, G 100, H 1, I 3, elevations p<0.001) | SMILES | Efficacy ranking in reducing parameters of bladder inflammation [1] | serum level of the MMCP1 protein (MMCP1 protein; ovalbumin challenged vs vehicle, oral ug/kg: A 0.1, E 0.3, F 30, F p<0.05, A, E p<0.001) | numbers of eosinophils in the bladder wall ([3]; 0.1 ug/kg oral vs vehicle, p<0.05) | total amount of IgE in serum (total IgE) | serum levels of chymase MMCP1 protein (MMCP1 protein; [4]) | serum calcium level [2, 4] | calcemic levels relative to the toxicity threshold ([2]; 75 ug/kg oral, toxicity threshold 10.7 mg/dl in mice) | serum calcium levels ([2]; lower dosage, not shown) | edema in bladder sections ([3]; 75 ug/kg oral vs vehicle, p<0.001) | eosinophils in bladder sections [3, 5] | lymphocytes in bladder sections [3, 5] | mast cells in bladder sections [3, 4] | signs of edema in representative bladder slides ([3]; 75 ug/kg oral, FIG. 16, x50 magnification) | ovalbumin specific IgE in serum (ovalbumin specific IgE)
no significant increase | CC(=O)OC1C/C(=C/C=C2\CCC[C@]3(C)C(C(C)C/C=C\C(O)(C(F)(F)F)C(F)(F)F)=CCC23)C[C@@H](OC(C)=O)C1 (stereo partly shown) [Compound A, 1,3-Di-O-acetyl-1,25-dihydroxy-16,23Z-diene-26,27-hexafluoro-19-nor-cholecalciferol] | Compound E>Compound F>Compound B>Compound H>Compound I>Compound A>Compound A=Compound G | statistically significant reduction | significantly reduced numbers | – | – | – | – | – | – | – | – | – | – | –
– | C=C1/C(=C\C=C2/CCC[C@]3(C)C([C@@H](C)C/C=C/C(O)(CC)CC)=CC[C@@H]23)C[C@@H](O)C[C@@H]1F [Compound B, 1-alpha-fluoro-25-hydroxy-16,23E-diene-26,27-bishomo-20-epi-cholecalciferol] | Compound E>Compound F>Compound B>Compound H>Compound I>Compound A>Compound A=Compound G | – | – | no significant changes | significantly lower | small, but statistically significant increase | did not cause calcemic levels to rise above the toxicity threshold | No significant changes | completely resolved | significant reduction | significant reduction | significant reduction | no signs of edema | no significant changes
